These results are taken from patent publication US8937089B2, “Synergistic mixtures of anthranilamide invertebrate pest control agents” (priority 2004, dated 2015).

Assay in all cases: whole plant or invertebrate
What all share (format): in vivo

In data set [1] the test system is potato leafhopper (Empoasca fabae Harris). Conditions: for mortality at 2 ppm: rate 2 ppm. The protocol: (§1) Test compounds were formulated using a solution containing 10% acetone, 90% water and 300 ppm X-77® Spreader Lo-Foam Formula non-ionic surfactant containing alkylarylpolyoxyethylene, free fatty acids, glycols and 2-propanol (Loveland Industries, Inc.) to provide the desired concentration in ppm. Formulated test solutions were then applied in 1 mL volumes through a SUJ2 atomizer nozzle with 1/8 JJ custom body (Spraying Systems Co.) positioned 1.27 cm (0.5 inches) above the top of each test unit.
[…] White sand was added to the top of the soil, and one of the primary leaves was excised prior to application. Test compounds were formulated and sprayed with 3 replications as described for Test A. After spraying, the test units were allowed to dry for 1 hour before they were infested with 5 potato leafhoppers (18- to 21-day-old adults). A black, screened cap was placed on the top of each container. The test units were held for 6 days in a growth chamber at 19-21° C. and 50-70% relative humidity.

For data set [2], the system named is green peach aphid (Myzus persicae Sulzer). Particulars: for mortality at 1000 ppm: rate 1000 ppm. The protocol: as §1
For evaluating control of green peach aphid (Myzus persicae Sulzer) through contact and/or systemic means, each test unit consisted of a small open container with a 12- to 15-day-old radish plant inside. This was pre-infested by placing on a leaf of the test plant 30 to 40 aphids on a piece of leaf excised from a culture plant (cut-leaf method). The larvae moved onto the test plant as the leaf piece desiccated. After pre-infestation, the soil of the test unit was covered with a layer of sand.
Test compounds were formulated and sprayed as described in Test A, replicated three times. After spraying of the formulated test compound, each test unit was allowed to dry for 1 hour and then a black, screened cap was placed on top. The test units were held for 6 days in a growth chamber at 19-21° C. and 50-70% relative humidity.

The test system of data set [3] is cotton melon aphid (Aphis gossypii Glover). Conditions: for mortality at 500 ppm: rate 500 ppm. The protocol:
as §1
For evaluating control of cotton melon aphid (Aphis gossypii Glover) through contact and/or systemic means, each test unit consisted of a small open container with a 6- to 7-day-old cotton plant inside. This was pre-infested by placing on a leaf of the test plant 30 to 40 aphids on a piece of leaf excised from a culture plant (cut-leaf method). The larvae moved onto the test plant as the leaf piece desiccated. After pre-infestation, the soil of the test unit was covered with a layer of sand.
Test compounds were formulated and sprayed as described for Test A. The applications were replicated three times. After spraying of the formulated test compounds, each test unit was allowed to dry for 1 hour and then a black, screened cap was placed on top. The test units were held for 6 days in a growth chamber at 19-21° C. and 50-70% relative humidity.

Data set [4] has as its system western flower thrip (Frankliniella occidentalis Pergande). Conditions: for mortality at 10 ppm: rate 10 ppm. The protocol:
as §1
For evaluating control of the western flower thrip (Frankliniella occidentalis Pergande) through contact and/or systemic means, each test unit consisted of a small open container with a 5- to 7-day-old bean (var. Soleil) plant inside.
Test solutions were formulated and sprayed with 3 replications as described for Test A. After spraying, the test units were allowed to dry for 1 hour, 22 to 27 adult thrips were added to each unit and then a black, screened cap was placed on top. The test units were held for 7 days at 25° C. and 45-55% relative humidity.

In data set [5] the test system is silverleaf whitefly (Bemisia argentifolii Bellows and Perring).
Description: For evaluating control of silverleaf whitefly (Bemisia argentifolii Bellows and Perring) through contact and/or systemic means, each test unit consisted of a small open container with a 12- to 14-day-old cotton plant inside. This was pre-infested by placing test units into cages infested with adult whiteflies so that oviposition on the cotton leaves could occur. The adults were removed from the plants with an air-blast nozzle, and the test units were capped. The test units were then stored 2 to 3 days before spraying.
as §1
The results for all experimental compositions in this test were replicated three times. After spraying of the formulated test composition, each test unit was allowed to dry for 1 hour and the cap removed. The test units were held for 13 days in a growth chamber at 28° C. and 50-70% relative humidity.

For data set [6], the system named is corn planthopper (Peregrines maidis). The protocol:
as §1
For evaluating control of corn planthopper (Peregrines maidis) through contact and/or systemic means, each test unit consisted of a small open cylindrical container with a 3- to 4-day-old corn (maize) plant (spike) inside. White sand was added to the top of the soil prior to application. Test compounds were formulated and sprayed with 3 replications as described for Test A. After spraying, the test units were allowed to dry for 1 hour before they were post-infested with 10 to 20 corn planthoppers (18- to 20-day-old nymphs) by sprinkling them onto the sand with a salt shaker. A black, screened cap was placed on the top of each container. The test units were held for 6 days in a growth chamber at 19-21° C. and 50-70% relative humidity.

The mark [7] stands for this setting: Empoasca fabae, alone, read-out: % mortality (obs).
[8] abbreviates: Myzus persicae, in Raphanus sativus, Green Peach Aphid, read-out: % mortality (obs).
Setting [9] is: Aphis gossypii, read-out: % mortality (obs).
[10] abbreviates: Frankliniella occidentalis, 168 h, single compound, spray, 7 days, read-out: % mortality (obs).
Where [11] appears, read: Frankliniella occidentalis, 168 h, rate 500 ppm, single compound, spray, 7 days, read-out: % mortality (obs).
Where [12] appears, read: Bemisia argentifolii, in Gossypium hirsutum, Table 2B, rate 10 ppm, read-out: % mortality (obs).

Read-outs that look alike come from different tables or passages of the source.

Usually mortality stands for the percentage killed. With `CC1(C)CNC(=NN=C(/C=C/c2ccc(C(F)(F)F)cc2)/C=C/c2ccc(C(F)(F)F)cc2)NC1` [Hydramethylnon], the mortality at 0.01 ppm in data set [1] (Empoasca fabae, rate 0.01 ppm, alone, read-out: % mortality (obs)) turned out to be 0%; in data set [6] (Corn Plant Hopper, rate 0.01 ppm, read-out: % mortality (obs)) it was 7%. Further, the mortality at 1 ppm in data set [1] (Empoasca fabae, rate 1 ppm, alone, read-out: % mortality (obs)) is 27%; in data set [6] (Corn Plant Hopper, rate 1 ppm, read-out: % mortality (obs)), 1%. The mortality at 2 ppm is 60% in data set [1] (setting [7]) and 6% in data set [6] (Corn Plant Hopper, rate 2 ppm, read-out: % mortality (obs)). Further, the mortality at 500 ppm in data set [2] (Myzus persicae, in Raphanus sativus, Green Peach Aphid, rate 500 ppm, read-out: % mortality (obs)) was determined as 18%; in data set [3] (setting [9]) it was 21%; in data set [4] (setting [11]) it was 50%. The mortality at 1000 ppm in data set [2] (setting [8]) worked out at 8%; in data set [3] (Aphis gossypii, rate 1000 ppm, read-out: % mortality (obs)), 40%; in data set [4] (Frankliniella occidentalis, 168 h, rate 1000 ppm, single compound, spray, 7 days, read-out: % mortality (obs)) it was 40%; in data set [5] (Bemisia argentifolii, in Gossypium hirsutum, Table 2B, rate 1000 ppm, read-out: % mortality (obs)), 0%. Also, the mortality at 1500 ppm was 7% in data set [2] (Myzus persicae, in Raphanus sativus, Green Peach Aphid, rate 1500 ppm, read-out: % mortality (obs)) and 39% in data set [3] (Aphis gossypii, rate 1500 ppm, read-out: % mortality (obs)). Further, the mortality at 10 ppm in data set [4] (setting [10]) came out at 60%; in data set [5] (setting [12]), 2%. Besides, in data set [5] (Bemisia argentifolii, in Gossypium hirsutum, Table 2B, rate 100 ppm, read-out: % mortality (obs)), the mortality at 100 ppm was determined as 1%.

`O=[N+]([O-])NC1=NCCN1Cc1ccc(Cl)nc1` [Imidacloprid]: the mortality at 0.2 ppm in data set [1] (Empoasca fabae, Table 4A, Imidacloprid 0.2 ppm, read-out: % Mortality (observed)) is 20%. For the same compound, the mortality at 0.4 ppm in data set [1] (Empoasca fabae, Table 4A, Imidacloprid 0.4 ppm, read-out: % Mortality (observed)) was found to be 0%. Also, the mortality at 1 ppm was 20% in data set [1] (Empoasca fabae, Table 4A, Imidacloprid 1 ppm, read-out: % Mortality (observed)) and 60% in data set [6] (Table 5A, Imidacloprid 1 ppm, read-out: % Mortality (observed)). The mortality at 0.08 ppm in data set [2] (Myzus persicae, in Raphanus sativus, Table 7A, Imidacloprid 0.08 ppm, read-out: % Mortality (observed)) came out at 4%. In addition, the mortality at 0.15 ppm in data set [2] (Myzus persicae, in Raphanus sativus, Table 7A, Imidacloprid 0.15 ppm, read-out: % Mortality (observed)) stood at 12%. Also, the mortality at 0.26 ppm in data set [2] (Myzus persicae, in Raphanus sativus, Table 7A, Imidacloprid 0.26 ppm, read-out: % Mortality (observed)) is 50%. The mortality at 0.05 ppm in data set [3] (Aphis gossypii, Table 6A, Imidacloprid 0.05 ppm, read-out: % Mortality (observed)) worked out at 12%. Moreover, the mortality at 0.3 ppm came out at 10% in data set [3] (Aphis gossypii, Table 6A, Imidacloprid 0.3 ppm, read-out: % Mortality (observed)) and 37% in data set [6] (Table 5A, Imidacloprid 0.3 ppm, read-out: % Mortality (observed)). Moreover, the mortality at 2.1 ppm in data set [3] (Aphis gossypii, Table 6A, Imidacloprid 2.1 ppm, read-out: % Mortality (observed)) was 40%. Further, the mortality at 11 ppm in data set [4] (Frankliniella occidentalis, Table 3A, Imidacloprid 11 ppm, read-out: % Mortality (observed)) was 20%. Further, the mortality at 77 ppm in data set [4] (Frankliniella occidentalis, Table 3A, Imidacloprid 77 ppm, read-out: % Mortality (observed)) stood at 37%. Moreover, the mortality at 561 ppm in data set [4] (Frankliniella occidentalis, Table 3A, Imidacloprid 561 ppm, read-out: % Mortality (observed)) turned out to be 90%. The mortality at 10 ppm in data set [5] (Bemisia argentifolii, in Gossypium hirsutum, Table 2A, Imidacloprid 10 ppm, read-out: % Mortality (observed)) was determined as 1%. The mortality at 22 ppm in data set [5] (Bemisia argentifolii, in Gossypium hirsutum, Table 2A, Imidacloprid 22 ppm, read-out: % Mortality (observed)) came to 2%. Moreover, in data set [5] (Bemisia argentifolii, in Gossypium hirsutum, Table 2A, Imidacloprid 48 ppm, read-out: % Mortality (observed)), the mortality at 48 ppm is 25%. Further, the mortality at 0.1 ppm in data set [6] (Table 5A, Imidacloprid 0.1 ppm, read-out: % Mortality (observed)) came out at 27%.

`COc1cccc(C(=O)NN(C(=O)c2cc(C)cc(C)c2)C(C)(C)C)c1C` [Methoxyfenozide]: the mortality at 0.08 ppm in data set [1] (Empoasca fabae, rate 0.08 ppm, alone, read-out: % mortality (obs)) was found to be 13%. In addition, in data set [1] (Empoasca fabae, rate 0.4 ppm, alone, read-out: % mortality (obs)), the mortality at 0.4 ppm worked out at 13%. The mortality at 2 ppm came out at 20% in data set [1] (setting [7]) and 1% in data set [5] (Bemisia argentifolii, in Gossypium hirsutum, Table 2B, rate 2 ppm, read-out: % mortality (obs)). Further, the mortality at 10 ppm is 7% in data set [2] (Myzus persicae, in Raphanus sativus, Green Peach Aphid, rate 10 ppm, read-out: % mortality (obs)); 60% in data set [4] (setting [10]); 2% in data set [5] (setting [12]); 7% in data set [6] (Corn Plant Hopper, rate 10 ppm, read-out: % mortality (obs)). The mortality at 100 ppm in data set [2] (Myzus persicae, in Raphanus sativus, Green Peach Aphid, rate 100 ppm, read-out: % mortality (obs)) was 17%; in data set [4] (Frankliniella occidentalis, 168 h, rate 100 ppm, single compound, spray, 7 days, read-out: % mortality (obs)), 60%; in data set [6] (Corn Plant Hopper, rate 100 ppm, read-out: % mortality (obs)), 2%. For the same compound, the mortality at 1000 ppm in data set [2] (setting [8]) came out at 6%; in data set [6] (Corn Plant Hopper, rate 1000 ppm, read-out: % mortality (obs)) it was 10%. The mortality at 5 ppm in data set [3] (Aphis gossypii, rate 5 ppm, read-out: % mortality (obs)) worked out at 32%. Also, the mortality at 50 ppm in data set [3] (Aphis gossypii, rate 50 ppm, read-out: % mortality (obs)) was found to be 54%; in data set [5] (Bemisia argentifolii, in Gossypium hirsutum, Table 2B, rate 50 ppm, read-out: % mortality (obs)), 1%. In addition, the mortality at 500 ppm in data set [3] (setting [9]) was 38%; in data set [4] (setting [11]), 60%.

As to `CCN(Cc1ccc(Cl)nc1)/C(=C/[N+](=O)[O-])NC` [Nitenpyram], the “% mortality (obs)” value in data set [1] (rate 0.3 ppm, alone) is listed as 7%; in data set [1] (rate 0.4 ppm, alone) it was 73%; in data set [1] (rate 0.5 ppm, alone) it was 33%; in data set [2] (Green Peach Aphid, rate 0.2 ppm), 7%; in data set [2] (Green Peach Aphid, rate 0.4 ppm), 17%; in data set [2] (Green Peach Aphid, rate 0.6 ppm) it was 40%. The “% mortality (obs)” value in data set [3] (rate 0.2 ppm) was determined as 29%; in data set [3] (rate 0.4 ppm), 49%; in data set [3] (rate 0.6 ppm), 71%; in data set [4] (rate 5 ppm, single compound, spray, 7 days), 20%; in data set [4] (rate 50 ppm, single compound, spray, 7 days), 50%; in data set [4] (rate 500 ppm, single compound, spray, 7 days) it was 80%. For the same compound, the “% mortality (obs)” value in data set [5] (Table 2B, rate 20 ppm) was 53%; in data set [5] (Table 2B, rate 30 ppm) it was 84%; in data set [5] (Table 2B, rate 40 ppm), 85%; in data set [6] (Corn Plant Hopper, rate 0.1 ppm), 27%; in data set [6] (Corn Plant Hopper, rate 0.2 ppm) it was 100%; in data set [6] (Corn Plant Hopper, rate 0.3 ppm), 100%.
